From patent publication US20230128815A1, “ADJUVANT COMPOUNDS, SALT FORMS, AND FORMULATIONS” (ADJUVANCE TECHNOLOGIES, INC., priority 2020, published 2023)
Where a name gives a salt, the structure may show the parent alone.

Assays:
[1] = TQL-1055 choline salt and free acid ethanol solubility; assay type: physicochemical; conditions: 100% ethanol, 37 °C, organic solvent or mixture, thermodynamic from solid, solubility in 100% ethanol, vortex mixed, sonicated at 37° C. for five minutes
Protocol: An experiment was conducted to determine the solubility of TQL-1055 choline salt and TQL-1055 free acid in ethanol. Several samples were prepared, each containing either TQL-1055 choline salt or TQL-1055 free acid dissolved in a 100% ethanol solution at a concentration of 4 mg/ml. All samples were mixed using a vortex mixer and subsequently sonicated at 37° C. for five minutes. Neither the TQL-1055 choline salt nor the TQL-1055 free acid were fully dissolved at 4 mg/ml. Samples were then diluted to 3.5 mg/ml, 3 mg/ml, 2.5 mg/ml, or 2 mg/ml and re-sonicated. As depicted in FIGS. 16-18, TQL-1055 choline salt was completely dissolved at a concentration of 3 mg/ml, whereas TQL-1055 free acid was completely dissolved at a concentration of 2 mg/ml. Accordingly, TQL-1055 choline salt is soluble in 100% ethanol up to concentrations of approximately 3 mg/ml, whereas TQL-1055 free acid is soluble in 100% ethanol up to concentrations of approximately 2 mg/ml.

Solubility in water = assay type: physicochemical
[2] = Dynamic vapor sorption (DVS) / humidity-dependent form stability; assay type: physicochemical
Protocol: Automated vapor sorption (VS) data were collected on a Surface Measurement System DVS Intrinsic instrument. Samples were not dried prior to analysis. Sorption and desorption data were collected over a range from 5% to 95% RH at 10% RH increments under a nitrogen purge. The equilibrium criterion used for analysis was less than 0.0100% weight change in 5 minutes with a maximum equilibration time of 3 hours. Data were not corrected for the initial moisture content of the samples.

[3] = compared to QS-21; cited from earlier work
[4] = from 5 to 65% relative humidity

Row | Compound | solubility at 5 min [1] | solubility (Solubility in water) | DVS additional weight gain ([2]; above 65% up to 95% relative humidity) | DVS weight gain [2, 4] | water gain equivalent to DVS weight gain [2, 4] | DVS weight loss on desorption ([2]; from 95 to 5% relative humidity) | relative humidity above which the form converts to higher hydrate Choline Material B ([2]; relative humidity) | solubility in water at physiological pH (Solubility in water; physiological pH) | efficacy as compared to the natural product [3] | toxicity as compared to the natural product [3]
1 | CC1O[C@@H](OC2C(O)[C@@H](NC(=O)CCCCCCCCCCC(=O)O)C(CO)O[C@H]2OC(=O)[C@]23CCC(C)(C)CC2C2=CCC4C5(C)CC[C@H](O)C(C)(C=O)C5CCC4(C)C2(C)CC3O)C(O)C(O)[C@H]1O[C@@H]1OC[C@@H](O)C(O)C1O (some centres unmarked) [TQL-1055 choline salt] | ~3000 µg/mL |  |  |  |  |  |  |  |  | 
2 | CC1O[C@@H](OC2C(O)[C@@H](NC(=O)CCCCCCCCCCC(=O)O)C(CO)O[C@H]2OC(=O)[C@]23CCC(C)(C)CC2C2=CCC4C5(C)CC[C@H](O)C(C)(C=O)C5CCC4(C)C2(C)CC3O)C(O)C(O)[C@H]1O[C@@H]1OC[C@@H](O)C(O)C1O (some centres unmarked) [Form A] |  | > 6000 µg/mL | 14% | 5% | ~3.5 mol/mol | 19% | above 65% |  |  | 
3 | CC1O[C@@H](OC2C(O)[C@@H](NC(=O)CCCCCCCCCCC(=O)O)C(CO)O[C@H]2OC(=O)[C@]23CCC(C)(C)CC2C2=CCC4C5(C)CC[C@H](O)[C@](C)(C=O)[C@@H]5CC[C@]4(C)[C@]2(C)CC3O)C(O)C(O)[C@H]1O[C@@H]1OC[C@@H](O)C(O)C1O (some centres unmarked) [Compound I-4] | ~2000 µg/mL |  |  |  |  |  |  | poor solubility | improved efficacy | reduced toxicity
